Assays:
[1] = test system: adenosine-sensitive receptors of thrombocytes; experiment: ADP-induced aggregation of thrombocytes in vitro (Born method); type: cell-based, rabbit; details: 3 min incubation, ADP 10^−5 M
Method in brief: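 Platelet-rich plasma from fasted male Chinchilla rabbits (citrated, […]), stirred at 37° C. ADP at 10^−5 M final was added, then compounds at 10^−3 to 10^−7 M for 3 min. Read-out was maximum aggregation amplitude as % fall in optical density, with platelet-poor plasma as 0%.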

[2] = test system: plasma hemostasis; experiment: Autocoagulation test (coagulating activity A) after intravenous administration; type: in vivo, rabbit; details: for effect on the coagulation activity, autocoagulation test (overall): doses 15.0, 30.0, 60.0 mg/kg
Protocol: The investigations were performed on 72 rabbits of the “Chinchilla” breed with a mass of 2.5±0.3 kg, who were administered which solutions of compounds 2, 15, 21, 37 in doses of 15, 30 and 60 mg/kg intravenously. The experiments included the thrombin-test (series No. 7300) and the coagulability-test (series No. 5000) purchased from the scientific-and-production association (SPA) “Renam”, thromboplastin (series No. 240600) and calcium chloride purchased from the SPA “MedioLab”
The static parameters of the blood and plasma coagulation (partial activated thromboplastin time, thrombin time, maximum coagulation activity (test for auto coagulation) were determined using the Behnk Electronic coagulometer (Germany). The operating principle of this instrument is based on the fact that the formed blood clot breaks the contacts of the pulse counter in the flask-pin circuit, said pin permanently oscillating in a vertical plane. The moment of formation of the clot is registered by stopping the stop watch hand.
The measurements were effected at a constant temperature of 37° C. maintained by a temperature control unit.
Compounds 2, 15, 21, 37 according to the invention at a concentration of 15, 30 and 60 mg/kg were intravenously administered to the above experimental animals and their blood samples were taken off 15, 30, 60 and 120 minutes after the administration.
Added to 0.2 ml of plasma obtained by centrifuging citrate blood at 1500 rev/min within 10 minutes was a glycosilate-calcium mixture (2.0 ml 0.222% CaCl2+0.1 ml of investigated citrate blood) 4, 6, 8, 10 minutes after the preparation of this mixture and the time of coagulation in the sample was determined.
The obtained results in seconds were translated in factors of coagulating activity A in percent, which specify the state of both the coagulating and anticoagulating parts of the blood coagulating system.

[3] = test system: synthase of nitrogen oxide (NOC); experiment: Morphine abstinence model: activity of synthase of nitrogen oxide (radiometric, [3H]L-citrulline); type: in vivo, rats Wistar; details: for Activity of NOC, Hypothalamus, Control + Compound / Activity of NOC, Mesencephalon, Control + Compound: compound alone 20.0 mg/kg intramuscularly; for Activity of NOC, Hypothalamus, Control + Morphine + compound / Activity of NOC, Mesencephalon, Control + Morphine + compound: morphinized rats then compound 20.0 mg/kg intramuscularly
[4] = test system: indicator enzymes in blood plasma; experiment: Morphine abstinence model: indicator enzymes AST, ALT, γ-GTP in blood plasma; type: in vivo, rats Wistar; details: for ALT, Ci, mE/l, Control + compound / AST, Ci, mE/l, Control + compound / γ-GTP, Ci, mE/l, Control + compound: compound alone 20.0 mg/kg intramuscularly; for ALT, Ci, mE/l, control + Morphine + Compound / AST, Ci, mE/l, control + Morphine + Compound / γ-GTP, Ci, mE/l, control + Morphine + Compound: morphinized rats then compound 20.0 mg/kg intramuscularly
Protocol: The experiments were carried out on rats in series of 7 animals on each compound according to the invention. Non-morphinized animal with not administered with compounds according to the invention were used as a control group. […] Then the rats were decapitated, the blood from somnolent arteries was collected in test tubes with solution EDTA as an anticoagulant, centrifuged at 1500 g for 15 minutes at 4° C.
To estimate possible hepatoprotective action of the compounds according to the invention under conditions of development of an oxidizing stress in the liver cells, effect of these compounds on the most important biochemical blood indexes, in particular, on the content in blood plasma of indicator enzyme of aspartateaminotransferase (AST), alanineaminotransferase (ALT), γ-glutamiletranspeptidase (γ-GTP) was investigated. The content of enzymes was estimated by their catalyzing activity in blood plasma.
The activity of AST, ALT and γ-GTP was determined by means of diagnostic sets DiaSys, Germany.

Row | SMILES | MA - fall of optical density of plasma, % to the standard ([1]; 10^−3 M) | MA - fall of optical density of plasma, % to the standard ([1]; 10^−4 M) | MA - fall of optical density of plasma, % to the standard ([1]; 10^−5 M) | MA - drop of optical density, % compared to control ([1]; 10^−6 M) | MA - drop of optical density, % compared to control ([1]; 10^−7 M) | A, % after 15 minutes (coagulating activity) ([2]; dose 15.0 mg/kg intravenously) | A, % after 30 minutes (coagulating activity) ([2]; dose 15.0 mg/kg intravenously) | A, % after 60 minutes (coagulating activity) ([2]; dose 15.0 mg/kg intravenously) | A, % after 120 minutes (coagulating activity) ([2]; dose 15.0 mg/kg intravenously) | A, % after 15 minutes (coagulating activity) ([2]; dose 30.0 mg/kg intravenously) | A, % after 30 minutes (coagulating activity) ([2]; dose 30.0 mg/kg intravenously) | A, % after 60 minutes (coagulating activity) ([2]; dose 30.0 mg/kg intravenously) | A, % after 120 minutes (coagulating activity) ([2]; dose 30.0 mg/kg intravenously) | A, % after 15 minutes (coagulating activity) ([2]; dose 60.0 mg/kg intravenously) | A, % after 30 minutes (coagulating activity) ([2]; dose 60.0 mg/kg intravenously) | A, % after 60 minutes (coagulating activity) ([2]; dose 60.0 mg/kg intravenously) | A, % after 120 minutes (coagulating activity) ([2]; dose 60.0 mg/kg intravenously) | effect on the coagulation activity, autocoagulation test (overall) [2] | Activity of NOC, Hypothalamus, Control + Compound [3] | Activity of NOC, Mesencephalon, Control + Compound [3] | other results
1 | Nc1ccnc2c(=O)n([C@@H]3O[C@H](CO)[C@@H](O)[C@H]3O)[nH]c(=O)c12 [Compound 2, 4-amino-7-(β-D-ribofuranosile)pyrido[2,3-d]-6H-pyridazine-5,8-dione] | 51.4 ± 2.7 % | 50.4 ± 1.7 % | 48.2 ± 1.0 % | 50.1 ± 2.0% | 50.8 ± 2.2% | 80.2% | 100.0% | 87.4% | 98.0% | 98.4% | 71.2% | 104.2% | 70.9% | 72.3% | 60.8% | 62.5% | 65.7% | have no effect on the coagulation activity |  |  | 
2 | Nc1cccc2c(=O)[nH][nH]c(=O)c12.[Na] [Compound 15, sodium salt of 5-amino-benzo[d]-3H-pyridazine-1,4-dione] | 44.8 ± 2.8 % | 46.3 ± 1.7 % | 39.8 ± 3.1 % | 47.3 ± 1.8 % | 49.3 ± 1.4% | 82.3% | 103.0% | 89.0% | 101.2% | 100.3% | 68.4% | 106.6% | 70.6% | 74.4% | 63.2% | 64.4% | 66.5% | have no effect on the coagulation activity | 5.45 ± 0.24 pmol/min/mg of protein | 2.60 ± 0.29 pmol/min/mg of protein | Activity of NOC, Hypothalamus, Control + Morphine + compound [3]: 5.26 ± 0.28 pmol/min/mg of protein; Activity of NOC, Mesencephalon, Control + Morphine + compound [3]: 1.83 ± 0.23 pmol/min/mg of protein; ALT, Ci, mE/l, Control + compound [4]: 113.48 ± 2.39 mE/l; AST, Ci, mE/l, Control + compound [4]: 173.46 ± 5.63 mE/l; γ-GTP, Ci, mE/l, Control + compound [4]: 7.03 ± 2.82 mE/l; ALT, Ci, mE/l, control + Morphine + Compound [4]: 121.08 ± 5.04 mE/l; AST, Ci, mE/l, control + Morphine + Compound [4]: 195.57 ± 18.68 mE/l; γ-GTP, Ci, mE/l, control + Morphine + Compound [4]: 10.69 ± 1.84 mE/l
3 | Nc1cnc2c(=O)n([C@@H]3O[C@H](CO)[C@@H](O)[C@H]3O)[nH]c(=O)c2n1.[Na] [Compound 21, sodium salt of 3-amino-7-(β-D-ribofuranosile)pyrazine[2,3-d]-6H-pyridazine-5,8-dione] | 47.1 ± 3.0 % | 49.2 ± 2.1 % | 41.8 ± 2.4 % | 49.6 ± 1.7% | 49.7 ± 2.1% | 81.4% | 101.3% | 86.5% | 97.4% | 97.2% | 69.1% | 103.7% | 71.0% | 71.9% | 62.1% | 63.7% | 66.2% | have no effect on the coagulation activity |  |  | 
4 | O=c1[nH][nH]c(=O)c2nccnc12.[Li] [Compound 25, lithium salt of pyrazine[2,3-d]-6H-pyridazine-5,8-dione] | 48.2 ± 2.9 % | 48.6 ± 2.0 % | 43.4 ± 3.2 % | 50.3 ± 2.1% | 50.1 ± 3.0% |  |  |  |  |  |  |  |  |  |  |  |  |  | 5.88 ± 0.27 pmol/min/mg of protein | 2.65 ± 0.43 pmol/min/mg of protein | Activity of NOC, Hypothalamus, Control + Morphine + compound [3]: 5.23 ± 0.27 pmol/min/mg of protein; Activity of NOC, Mesencephalon, Control + Morphine + compound [3]: 1.97 ± 0.27 pmol/min/mg of protein; ALT, Ci, mE/l, Control + compound [4]: 115.27 ± 1.09 mE/l; AST, Ci, mE/l, Control + compound [4]: 177.34 ± 6.13 mE/l; γ-GTP, Ci, mE/l, Control + compound [4]: 7.57 ± 1.93 mE/l; ALT, Ci, mE/l, control + Morphine + Compound [4]: 121.96 ± 3.4 mE/l; AST, Ci, mE/l, control + Morphine + Compound [4]: 196.46 ± 15.34 mE/l; γ-GTP, Ci, mE/l, control + Morphine + Compound [4]: 11.37 ± 1.54 mE/l
5 | Nc1ncc2c(=O)[nH][nH]c(=O)c2n1 [Compound 36, 2-amino-pyrimido[4,5-d]-6H-pyridazine-5,8-dione] | 45.8 ± 2.3 % | 46.9 ± 2.4 % | 40.1 ± 2.0 % | 49.3 ± 2.6% | 49.7 ± 1.8% |  |  |  |  |  |  |  |  |  |  |  |  |  |  |  | 

— patent US20070166547A1, “Use of a layer consisting of hydrophobic linear, or two-dimensional polycyclic aromatics as a barrier layer or an encapsulation and electric components constructed with a layer of this type and comprising organic polymers” (priority 2003, published 2007)
